Experimental findings from publication PMC9606187, “Dual HDAC/BRD4 Inhibitors Relieves Neuropathic Pain by Attenuating Inflammatory Response in Microglia After Spared Nerve Injury” (Neurotherapeutics, 2022) are described below.

Data set [1] deals with T1, Recombinant Human Bromodomain containing protein 4, bromodomain 1 (BRD4-BD1) (Homo sapiens, UniProt O60885).
T1 construct: bromodomain 1 (aa 44–170); purchased Reaction Biology (RBC) RD-11–140; host or cells: E. coli
Kind of data set: AlphaScreen bromodomain binding assay (Reaction Biology), BRD4-1. The method, then: The reader assay is a binding assay using AlphaScreen technology […] assay and was performed by Reaction Biology (www.reactionbiology.com). The biotinylated peptide binding to the reader domain of His-tagged protein is monitored by the singlet oxygen transfer from the Streptavidin-coated donor beads to the AlphaScreen Ni-chelate acceptor beads.
Reaction buffer: 50 mM Hepes, pH7.5, 100 mM NaCl, 0.05% CHAPS, 0.1% BSA, and 1% DMSO (the final DMSO concentration may differ depending on compound stock and test concentrations).
Bromodomain: BRD4-1: RBC Cat# RD-11–140: Recombinant Human Bromodomain containing protein 4, bromodomain 1 (aa 44–170; Genbank Accession # NM_058243), expressed in E. coli with N-terminal His-tag. MW = 17.8 kDa; BRD4-2: RBC Cat# RD-11–141: Recombinant Human Bromodomain containing protein 4, bromodomain 2 (aa 349–460;Genbank Accession # NM_058243), expressed in E. coli with N-terminal His-tag. MW = 15.7 kDa. Ligand (C-term-Biotin): Histone H4 peptide (1–21) K5/8/12/16Ac-Biotin. Detection beads: PerkinElmer: Donor beads: Streptavidin-coated donor beads; Acceptor beads: AlphaScreen Ni acceptor beads.
Reaction procedure: • Deliver 2.5X BRD in wells of reaction plate except No BRD control wells. Add buffer instead. • Deliver compounds in 100% DMSO into the BRD mixture by Acoustic technology (Echo550; nanoliter range). […]
Background: In Alpha technology, singlet oxygen from a donor bead excites a nearby acceptor bead.

For a further data set, the system named is SNI mice. Briefly: Rotarod test. Format: in vivo. To be noted: 50 µM i.n., vs vehicle-treated SNI mice. The procedure: The possible alteration of motor performance induced by each treatment was assessed by rotarod test, as previously described. The integrity of motor coordination was assessed as number of falls from the rod in 30 s.
Background: The rotarod test checks motor coordination on a turning rod.

The test system of another data set is BRD4. Briefly: Western blot of lumbar spinal cord, BRD4. Format: in vivo, mice. To be noted: SNI ipsilateral side, day 7 and 14 post-surgery, i.n. The procedure:
(§1) The lumbar spinal cord was removed 7 and 14 days after surgery and 90 min after the intranasal administration of SUM52, corresponding to the peack of the effect. Samples (n = 4 for groups) were homogenized in a homogenization buffer and processed as previously described. Protein samples (40 µg of protein/sample) were separated on 10% SDS-PAGE and transferred onto nitrocellulose membranes (120 min at 100 V) using standard procedures. Membranes were blocked in PBST (PBS containing 0.1% Tween) containing 5% nonfat dry milk for 120 min. […] Blots were then extensively washed and developed using enhanced chemiluminescence detection system (Pierce, Milan, Italy) and signal intensity (pixels/mm^2) quantified (ImageJ, NIH). […] For each sample, the signal intensity was normalized to that of total protein stained by Ponceau S and the acquired images were quantified using Image Lab software. […]
For orientation: A western blot detects proteins with antibodies after separation by electrophoresis.

A further data set has as its system IBA1 (microglia marker). Briefly: Immunofluorescence of lumbar spinal cord, IBA1. Format: in vivo. As to conditions: lumbar spinal cord of SNI mice, day 14. The procedure: On postsurgical day 14, animals were perfused transcardially with 4% paraformaldehyde in 0.1 M phosphate buffer (PBS, pH 7.4). After perfusion, lumbar spinal cord was quickly removed and processed as previously described. Four animals per groups were used for this analysis. […] Primary antibody used was IBA1 (1:100; Santa Cruz Biotechnology Cat# sc-32725, RRID:AB_667733). After rinsing in PBS containing 0.01% Triton-X-100, sections were incubated in secondary antibodies labeled with Invitrogen Alexa Fluor 488 (490–525, 1:400; Thermo Fisher Scientific), Invitrogen Alexa Fluor 568 (578–603, 1:400; Thermo Fisher Scientific), Cruz Fluor 594 (592–614, 1:400; Santa Cruz Biotechnology) at room temperature for 2 h. Sections were coverslipped using Vectorshield mounting medium (Vector Laboratories, Burlingame, CA). A Leica DM6000B fluorescence microscope equipped with a DFC350FX digital camera with appropriate excitation and emission filters for each fluorophore was used to acquire representative images. Images were acquired with × 5 to × 40 objectives using a digital camera. The immunofluorescence intensity was calculated by ImageJ (Wayne Rasband, National Institute of Health, USA).

In another data set the test system is iNOS (NOS2). Kind of data set: Western blot of lumbar spinal cord, iNOS. The data set is classed as in vivo, mice. To be noted: SNI ipsilateral side, day 7 and 14. The method, then:
as §1

The next data set deals with IL-6. Kind of data set: Western blot of lumbar spinal cord, IL-6. The data set is classed as in vivo, mice. As to conditions: SNI ipsilateral side, day 7 and 14. The procedure: as §1

For `Cc1nnc2n1-c1ccccc1C(c1ccccc1)=N[C@H]2CC(=O)NCCCCCCC(=O)NO` [SUM52, (S)-N-hydroxy-7-(2-(1-methyl-6-phenyl-4H-benzo[f][1,2,4]triazolo[4,3-a][1,4]diazepin-4-yl)acetamido)heptanamide], the IC50 in data set [1] is 0.758 µM. Moreover, the “motor coordination (rotarod test)” value with SNI mice was “no alteration”. Further, the “spinal BRD4 protein expression” value in the data set with BRD4 is “restored both epigenetic enzyme levels to control values”. For the same molecule, the IBA1 immunostaining result with IBA1 (microglia marker) is listed as “significantly reduced”. For the same molecule, the “NOS2 (iNOS) expression” value in the data set with iNOS (NOS2) is reported as “reduced NOS2 overactivation”. Also, the IL-6 expression result with IL-6 was “drastically reduced”.

In general, IC50 refers to the concentration that inhibits the measured activity by half.
